Results from BindingDB's records for doi:10.1016/j.bmcl.2009.09.014 (Johnson & Johnson Pharmaceutical, 2009).
pIC50: −log10 of the molar value.

Biological target: Cathepsin S (Homo sapiens, UniProt P25774)
Assay: Cathepsn S Inhibition Assay
Conditions: pH 5; 23 °C
Method: Enzyme assays were run using fluorescence resonance energy transfer-based substrates, (Aedens)[…](Dabcyl)K-amide and cathepsin S cleaves between amino acids Leu-6 and Ala-7. The fluorescence of the aedens group is quenched by the dabcyl moiety in the intact peptide. Upon cleavage by cathepsin S, the quenching is released and the fluorescence of the aedens group can be measured. The increase in fluorescence was measured on a Cytofluor II (Applied Biosystems, Foster City, CA) with an excitation filter of 360/40 nm and an emission filter of 460/40 nm. A reading was made every minute for 20 to 60 min, and the slope obtained from a linear regression of this time course was used as the reaction rate. The reaction rates were determined for different inhibitor concentrations, and the percentage of inhibition was determined by comparison with the reaction rate in the absence of inhibitor. IC50 values were determined by four parameter fits of plots of the percentage of inhibition versus inhibitor concentration using the program GraFit (Erithacus Software Ltd.).

Sequence of Cathepsin S (P25774 whole entry): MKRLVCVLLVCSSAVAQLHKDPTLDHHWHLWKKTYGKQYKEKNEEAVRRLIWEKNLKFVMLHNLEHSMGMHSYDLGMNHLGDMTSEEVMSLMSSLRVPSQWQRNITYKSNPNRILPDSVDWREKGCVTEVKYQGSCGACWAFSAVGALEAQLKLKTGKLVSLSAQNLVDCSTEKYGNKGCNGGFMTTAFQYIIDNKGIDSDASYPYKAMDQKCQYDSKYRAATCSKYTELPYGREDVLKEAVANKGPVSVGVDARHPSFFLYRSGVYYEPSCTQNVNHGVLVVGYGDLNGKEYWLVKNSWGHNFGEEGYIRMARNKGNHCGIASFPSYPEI

| pIC50 | SMILES |
| --- | --- |
| 5.13 | C#Cc1cc(-c2nn(CCCN3CCOCC3)c3c2CN(S(C)(=O)=O)CC3)ccc1Cl [arylalkyne pyrazole-based compound, 11] |
| 7.40 | COC(=O)C(=O)N1CCc2c(c(-c3ccc(Cl)c(C#Cc4ccc(Cl)cc4)c3)nn2CCCN2CCOCC2)C1 [arylalkyne pyrazole-based compound, 33] |
